Measurements reported in patent US20230141863A1, “Small Molecule Inhibitors Targeting the Sodium Channel Tamoxifen Receptor and Uses Thereof” (Northwestern University, priority 2021, published 2023).
Where two headings read alike, the source gives them in different places.

System: DRG action potentials
Experiment: Current clamp recording of cultured DRG neuron action potentials
Type: cell-based, mouse
Settings: for IC50: Mus musculus, DRG neuron, 2-4 minutes of extracellular drug treatment
Text: FIG. 4. N-desmethyl tamoxifen inhibits DRG neuronal transmission. A) Exemplar action potentials recorded from an isolated DRG neuron in control and ND-Tam-treated conditions using a 1 second, 80 pA injection of current. After the experiment was complete, drug was washed out of the bath for five minutes and recovery from inhibition was retested. Consistent with previous reports, the resting membrane potential of the DRG neurons was −53.4±5 mV (Error is equal to S.D., n=109) (PMID: 8052416). B, C) The potency of ND-Tam inhibition on DRG action potential frequency and peak amplitude. Open symbols represent responses from individual cells while filled symbols represent average response per concentration. Error is equal to S.E.M. and the number of cells tested per treatment group is indicated within the parentheses. D, E) A comparison of the potency of cannabidiol (CBD) and carbamazepine (CBZ) inhibition on action potential frequency and peak amplitude. As done previously, drug concentration-INa inhibition relationships were fit to the Hill equation. Open symbols represent responses from individual cells while filled symbols represent average response per concentration. Error is equal to S.E.M. and the number of cells tested per treatment group is indicated within the parentheses.
FIG. 10. N-desmethyl tamoxifen inhibits spontaneous action potentials in sensory neurons. A) Exemplar spontaneous action potentials, recorded from a DRG neuron without injecting current, inhibited by 100 nM N-desmethyl tamoxifen. B) Morphology of a single spontaneous action potential in DRG neuron C) Inhibition of spontaneous action potential frequency by 100 nM ND-Tam (P=0.04). Open symbols represent responses from individual cells and filled symbols represent the average response. Error is equal to S.E.M. from 6 spontaneously firing DRG neurons.
DRG neurons act as a filter to electrical information from the periphery, required for the perception of pain, generated by several types of ion channels, including Navs. For that reason, the inventors compared the pharmacology of ND-Tam against cultured DRG action potentials recorded using current clamp (FIG. 4A). The inventors then compared DRG action potential frequency and amplitude before and after 2-4 minutes of extracellular drug treatment (FIG. 4A-C, FIG. 14). […] After exchanging the drug for control saline for 2 minutes, ND-Tam inhibition of action potential frequency and peak amplitude was persistent (FIG. 4A), which is consistent with the observed slow dissociation of the drug with sodium channels (FIG. 1B, D).
Dorsal root ganglia were isolated using a modified version of the previously described protocol (PMID: 26864470). All animal procedures were approved by the Institutional Animal Care and Use Committee at the Feinberg Medical School, Northwestern University. The spinal columns of 4-6-week-old […] or Nav1.8-Tomato mice (Nav1.8-Td) were removed and DRG neurons from all spinal levels were isolated for primary culture (PMID: 33827672, PMID: 31351964). The collected DRGs, containing both neuronal and non-neuronal cells, were acutely dissociated in DMEM with collagenase IV (2 mg/mL) for 30 minutes, followed by papain (25 U/mL) for 30 minutes. The cells were then triturated, filtered through a 40 μm cell strainer to remove non-dissociated cells, and washed with DMEM. […]

Which “potency against action potential frequency and peak amplitude compared with CBZ and CBD (in words)” value does the source give for `CC/C(=C(\c1ccccc1)c1ccc(OCCNC)cc1)c1ccccc1` [ND-Tam, 2-[4-[(Z)-1,2-diphenylbut-1-enyl]phenoxy]-N-methylethanamine] here?
The value was “more potent inhibitor of DRG action potential frequency and peak amplitude than CBZ and CBD”.

And the “reduction of the frequency of spontaneous sensory neuron action potentials” value (100 nM, three-minute extracellular application, n=6, P=0.04)?
Its value is 91%.

And the IC50 (80 pA of injected current, read-out: IC50 against action potential peak amplitude)?
The IC50 was 1300 nM.

And the IC50 (elicited by 80 pA of injected current, read-out: IC50 against action potential firing frequency)?
The IC50 was 119 nM.

What about the “inhibition of action potential frequency and peak amplitude after washout (in words)” value (after exchanging the drug for control saline for 2 minutes) of the same molecule?
Its value is “persistent”.
